Two compounds from article PMC5642494 (Oncotarget, 2017) can be followed below.

The subject of one test is MCF7 cells. Briefly: Multiplexed cell number, β-gal and TUNEL in MCF7. The settings on record: 0.125 µM or 0.5 µM, 1-5 DT. Format: cell-based, human. How it is done: The viable cell number was determined by PI staining, the % of β-gal positive cells was determined using an antibody to β-gal, and the % of Tunel positive cells was determined by the incorporation of labelled dUTP. The data are plotted as the mean (+/- SD) of 2 experiments for CDK4 and CDK6 inhibitor treatment, and the mean of 6 experiments (+/- SD) for untreated samples. The duration of treatment is plotted along the x-axis in doubling times (DT) for MCF7 cells.
After treatment, cells were fixed, washed with PBS, permeabilized and β-gal was detected using anti-β-galactosidase antibody; for multiplexed assays, TUNEL staining was carried out using Roche TUNEL reagents as indicated above. Nuclei were also stained with PI for total cell counting. Plates were read in an Acumen Explorer Ex3 (TTP Labtech) and raw data were analyzed with Cellista software. Outputs were expressed as percentages of each identified subpopulation 1) positive β-gal, and 2) total cell number. The percentages of β-gal positive cells, TUNEL positive cells, and cell numbers were plotted in Microsoft Excel.

Test [1] relates to HR+ and HR- breast cancer cell lines. Put plainly: Proliferation after washouts (EdU Click-iT) in breast cancer lines. Format: cell-based, human. To be noted: HR+ versus HR- breast cancer cell lines; exposure 2 hr, 24 hr or 72 hrs followed by washout. Here is the method: Images were SA-β-galactosidase immunocytochemical labeling taken by fluorescent microscopy using a Leica DMiL. […] SA-β-gal Cell samples were lysed after treatment with expression was determined using the Senescence Cells 100 μL lysis buffer and transferred to a 96-well plate. Histochemical Staining Kit (Sigma, CS0030) following 30 μL of each sample were transferred into deep well the vendor 's manual. Images were taken at 100x by bright plates using TECAN-EVO Workstation. Samples were field microscopy (Leica DMiL). treated for derivatization of the metabolites of interest and internal standards. For this, 50 μL of derivatization reagent Proliferation studies after washouts (EdU Click- and 80 μL of internal standard (IS, SupplementaryTable iT®) 1), were added with multidrop, plates were vortexed for 5 mins and let sit for one hour at 4 °C. The IS used were the Cells were plated onto poly-D-lysine D or 13C-labeled commercial analogues of nine of the ten coated 96-well plates at a density of 2,000-6,000 metabolites, prepared at 25 μM in water (Supplementary viable cells per well, and treated with abemaciblib or Table 1). The derivatization reagents (from Sigma), […] washout schedule shown on Supplementary Figure 1A. […] EdU Samples were analyzed by LC-MS/MS under the detection was performed using the Click-iT High Content conditions described below. […] Cell images were captured using a Cellomics Arrayscan VTI and analyzed Analysis of the derivatized-extracted samples with the Target Activation bio-application V.3 reading in 4 was carried out with an Agilent 6460 Triple Quadrupole channels at a magnification of 10X. […] The software relative levels and sub-cellular localization of EdU were for data collection and treatment was Agilent Masshunter determined through the respective intensities and locations Workstation. Mobile phases for chromatography were: of Alexa-488 fluorescence. mobile phase A: formic acid (5 mM) and ammonium formate (10 mM) in water; mobile phase B: acetonitrile. […]

Consider `CC(=O)c1c(C)c2cnc(Nc3ccc(N4CCNCC4)cn3)nc2n(C2CCCC2)c1=O` [palbociclib], for which, in the test with MCF7 cells, the TUNEL staining entry is “only minor increases in TUNEL staining were observed and only after longer treatment times”; the “percentage of cells with β-gal staining compared with abemaciclib” value was “lower”. In addition, the “DNA synthesis / proliferation as measured by EdU incorporation” value in test [1] was “decrease in proliferation preferentially for HR+ cell lines; however, this effect was only observed after longer treatment times”.

`CN(C)C(=O)c1cc2cnc(Nc3ccc(N4CCNCC4)cn3)nc2n1C1CCCC1` [ribociclib]: in the test on MCF7 cells, the TUNEL staining entry was “only minor increases in TUNEL staining were observed and only after longer treatment times”; the “percentage of cells with β-gal staining compared with abemaciclib” value is “lower”.
